Columns and labels:
[1] = test system: Icem: CER (SPF Caw) male rats fed hypercholesterolaemic diet; experiment: Experiment No. 1: serum lipids in rats fed hypercholesterolaemic diet; format: in vivo, rat; settings: 50 mg/kg/os for 4 days, *** p < 0.01
Experimental: (§1) The activity of the compounds of the invention was evaluated on groups of Icem: CER (SPF Caw) male rats either fed for six days with hypercholesterolaemic diet according to C. E. Day [Schurr P. E., Schultz H. R., Day C. E. (Eds) Atherosclerosis and drug discovery--Plenum Pub. Corp., 217 (1976)] (Experiment No. 1) or fed standard diet Altromin (Experiment No. 2). "Altromin" is a trade mark.
(§2) The compounds were suspended in "Methocel" (methyl cellulose, a 0.5% suspension in water) and administered by stomach tube at the dose of 50 mg/kg for 4 days.
(§3) Groups of animals were treated with the suspending agent only (control groups).
(§4) The total serum cholesterol was determined with the method of Trinder P. J. [J. Clin. Pathol., 22, 246 (1969)].
(§5) The total serum HDL cholesterol was determined according to Demacker P. N. M. [Clin. Chem., 23, 1238, (1977)]. The total β-lipoprotein cholesterol was determined by difference between total serum cholesterol and HDL cholesterol.
Statistical analysis in experiment No. 1 was performed by the Student's test for independent samples or by the Cochran's t test when the variances were not homogeneous at the F ratio test [Bliss C. I.--Statistics in Biology, Vol. 1, page 213--Mc Graw Hill Book Company, New York, 1967; Cochran W. G., Cox G. M.--Experimental designs--J. Wiley e Sons Inc., New York, II Ed. (1968) page 100].
The Table 1 reports the values of serum total cholesterol and total HDL cholesterol and ratio between α and β lipoprotein total cholesterol from animals fed hypercholesterolaemic diet and treated with two compounds of the invention: 3-(1-imidazolyl)-2,3-dihydro-6-chloro-4H-1-benzopyran-4-one: compound A, and 3-(1-imidazolyl)-2,3-dihydro-6-chloro-4H-1-benzopyran-4-ol (trans isomer): compound B, in comparison with the values of the same variables in controls.

[2] = test system: Icem: CER (SPF Caw) male rats fed standard diet Altromin; experiment: Experiment No. 2: serum lipids in rats fed standard diet Altromin; format: in vivo, rat; settings: 50 mg/kg/os for 4 days; for Serum HDL total cholesterol, mean ± S.E.: ** p < 0.05; for Serum triglycerides, mean ± S.E. / Total serum cholesterol, mean ± S.E. / α/β lipoprotein total cholesterol, mean: *** p < 0.01
Experimental: as §1, §2, §3, §4
The serum triglycerides were determined with the method of Mendez J. [J. Clin. Chem., 21, 768, (1975)].
as §5
W.--J. Amer. Stat. Ass., 50, 1096 (1955)]. Taking in account the ratio between α and β lipoprotein cholesterol it was necessary to make the variances homogeneous by a transformation of the values (√x).

[3] = test system: collagen-induced platelet aggregation; experiment: in vitro collagen-induced platelet aggregation in platelet rich plasma (method of Born); format: cell-based; settings: final 25 mcg/ml; induced by 2 mcg/ml collagen; Guinea pig platelet rich plasma
Experimental: The compounds of the invention are also endowed with blood platelet-antiaggregating activity. This activity was evaluated e.g. "in vitro" on the basis of the ability of the test compounds to inhibit the collagen-induced platelet aggregation in Guinea pig platelet rich plasma according to the method of Born "Born G.V.R.--Nature, […] (1962)].

| SMILES | Serum HDL total cholesterol, mean ± S.E. [1] [mg/100 ml] | Total serum cholesterol, mean ± S.E. [1] [mg/100 ml] | α/β lipoprotein cholesterol, mean ± S.E. [1] | Serum HDL total cholesterol, mean ± S.E. [2] [mg/100 ml] | Serum triglycerides, mean ± S.E. [2] [mg/100 ml] | Total serum cholesterol, mean ± S.E. [2] [mg/100 ml] | α/β lipoprotein total cholesterol, mean [2] | inhibition of platelet aggregation [3] |
| --- | --- | --- | --- | --- | --- | --- | --- | --- |
| O[C@H]1c2cc(Cl)ccc2OC[C@@H]1n1ccnc1 (relative stereo) [Compound B, 3-(1-imidazolyl)-2,3-dihydro-6-chloro-4H-1-benzopyran-4-ol (trans isomer)] | 47.6 ± 2.4 | 184.4 ± 19.7 | 0.3664 ± 0.055 | 50.3 ± 1.7 | 90.6 ± 6.1 | 72.4 ± 2.3 | 1.432 |  |
| O=C1c2cc(Cl)ccc2OCC1n1ccnc1 (stereo not drawn) [Compound A, 3-(1-imidazolyl)-2,3-dihydro-6-chloro-4H-1-benzopyran-4-one] | 44.3 ± 1.3 | 133.2 ± 10.1 | 0.548 ± 0.052 | 52.3 ± 2.5 | 77.2 ± 7.0 | 73.4 ± 3.0 | 1.450 | inhibit wholly |
